The nature of series [1]: OVCAR3 ovarian xenograft model. The following applies: female, SCID Hairless Outbred (SHO), mouse, in vivo, ip.
Series [2] concerns OVCAR3 ovarian xenografts. Put plainly: OVCAR3 ovarian xenograft model. The following applies: dose 60 mg/kg (30 mg/kg twice a day) intraperitoneally Q7d×4.
The test system of series [3] is MDA-MB-468 (breast cancer). Nature of the series: In vitro cytotoxicity (MTS), MDA-MB-468. The following applies: Table 13; four days; LP = lacked potency. In kind it is cell-based, human. How it is done: (§1) The effects of anti-Notch3 ADCs were assessed on 1) cell lines endogenously expressing Notch3 protein: HCC2429 (lung cancer), OVCAR3 (ovarian cancer) and MDA-MB-468 (breast cancer), 2) cell lines engineered to over-express full length human Notch3 protein: MDA-MB-468/hNotch3 and U2OS/hNotch3, and 3) a negative control cell line (SW900) using an MTS cellular viability indicator (Promega, Madison, Wis.). These cell lines were cultured with increasing concentrations of anti-Notch3 ADCs comprising rat-human chimeric anti-Notch3 antibodies, ch28 and ch75, and humanized anti-Notch3 antibodies, hu28 and hu75, conjugated to various linker-payload combinations of the present invention. As a specificity control for the anti-Notch3-ADCs, non-targeted control-ADCs (huNeg8.8-ADCs or ch2H6-ADCs) were also tested on the same cell lines. After four days, viability of each culture was assessed. IC50 values were calculated by logistic non-linear regression, model #203 with XL fit v4.2 (IDBS, Guildford, Surry, UK) and presented as ng Ab/mL. The drug antibody ratio (DAR) is also provided.

The subject of series [4] is HCC2429 (lung cancer). Nature of the series: In vitro cytotoxicity (MTS), HCC2429. Type of series: cell-based, human. To be noted: Table 13; four days; LP = lacked potency. How it is done: as §1
(§2) This process generated the anti-Notch3 cysteine mutant ADCs: hu28-(L443C)-vc0101 and hu28-(L443C/κK183C)-vc0101. The activity of the anti-Notch3 cysteine mutant ADCs were assessed on cell lines endogenously expressing Notch3 protein: HCC2429 (lung cancer) and OVCAR3 (ovarian cancer) using an MTS cellular viability indicator as described in previous Examples.

Series [5] deals with OVCAR3 (ovarian cancer). Nature of the series: In vitro cytotoxicity (MTS), OVCAR3. In kind it is cell-based, human. To be noted: Table 13; four days; LP = lacked potency. How it is done: as §1, §2
In series [6] the target is T1, MDA-MB-468/hNotch3 (Homo sapiens, UniProt Q9UM47).
T1 construct: cell lines engineered to over-express full length human Notch3 protein: MDA-MB-468/hNotch3 and U2OS/hNotch3; expressed in transfected cells; host or cells: MDA-MB-468
Put plainly: In vitro cytotoxicity (MTS), MDA-MB-468/hNotch3. In kind it is cell-based. The following applies: Table 13; four days; LP = lacked potency. How it is done:
as §1

The target in series [7] is U2OS/hNotch3 (Homo sapiens, UniProt Q9UM47). Put plainly: In vitro cytotoxicity (MTS), U2OS/hNotch3. In kind it is cell-based. Details: U-2 OS cells stably over-expressing human full length Notch3 protein on cell surface; expressed in transfected cells; host or cells: U-2 OS (human osteosarcoma). To be noted: Table 13; four days; LP = lacked potency. How it is done:
as §1

Consider two molecules from patent US9433687B2, “Anti-Notch3 antibodies and antibody-drug conjugates” (Pfizer Inc., priority 2012, dated 2016).

T1 sequence (Q9UM47 40-2321): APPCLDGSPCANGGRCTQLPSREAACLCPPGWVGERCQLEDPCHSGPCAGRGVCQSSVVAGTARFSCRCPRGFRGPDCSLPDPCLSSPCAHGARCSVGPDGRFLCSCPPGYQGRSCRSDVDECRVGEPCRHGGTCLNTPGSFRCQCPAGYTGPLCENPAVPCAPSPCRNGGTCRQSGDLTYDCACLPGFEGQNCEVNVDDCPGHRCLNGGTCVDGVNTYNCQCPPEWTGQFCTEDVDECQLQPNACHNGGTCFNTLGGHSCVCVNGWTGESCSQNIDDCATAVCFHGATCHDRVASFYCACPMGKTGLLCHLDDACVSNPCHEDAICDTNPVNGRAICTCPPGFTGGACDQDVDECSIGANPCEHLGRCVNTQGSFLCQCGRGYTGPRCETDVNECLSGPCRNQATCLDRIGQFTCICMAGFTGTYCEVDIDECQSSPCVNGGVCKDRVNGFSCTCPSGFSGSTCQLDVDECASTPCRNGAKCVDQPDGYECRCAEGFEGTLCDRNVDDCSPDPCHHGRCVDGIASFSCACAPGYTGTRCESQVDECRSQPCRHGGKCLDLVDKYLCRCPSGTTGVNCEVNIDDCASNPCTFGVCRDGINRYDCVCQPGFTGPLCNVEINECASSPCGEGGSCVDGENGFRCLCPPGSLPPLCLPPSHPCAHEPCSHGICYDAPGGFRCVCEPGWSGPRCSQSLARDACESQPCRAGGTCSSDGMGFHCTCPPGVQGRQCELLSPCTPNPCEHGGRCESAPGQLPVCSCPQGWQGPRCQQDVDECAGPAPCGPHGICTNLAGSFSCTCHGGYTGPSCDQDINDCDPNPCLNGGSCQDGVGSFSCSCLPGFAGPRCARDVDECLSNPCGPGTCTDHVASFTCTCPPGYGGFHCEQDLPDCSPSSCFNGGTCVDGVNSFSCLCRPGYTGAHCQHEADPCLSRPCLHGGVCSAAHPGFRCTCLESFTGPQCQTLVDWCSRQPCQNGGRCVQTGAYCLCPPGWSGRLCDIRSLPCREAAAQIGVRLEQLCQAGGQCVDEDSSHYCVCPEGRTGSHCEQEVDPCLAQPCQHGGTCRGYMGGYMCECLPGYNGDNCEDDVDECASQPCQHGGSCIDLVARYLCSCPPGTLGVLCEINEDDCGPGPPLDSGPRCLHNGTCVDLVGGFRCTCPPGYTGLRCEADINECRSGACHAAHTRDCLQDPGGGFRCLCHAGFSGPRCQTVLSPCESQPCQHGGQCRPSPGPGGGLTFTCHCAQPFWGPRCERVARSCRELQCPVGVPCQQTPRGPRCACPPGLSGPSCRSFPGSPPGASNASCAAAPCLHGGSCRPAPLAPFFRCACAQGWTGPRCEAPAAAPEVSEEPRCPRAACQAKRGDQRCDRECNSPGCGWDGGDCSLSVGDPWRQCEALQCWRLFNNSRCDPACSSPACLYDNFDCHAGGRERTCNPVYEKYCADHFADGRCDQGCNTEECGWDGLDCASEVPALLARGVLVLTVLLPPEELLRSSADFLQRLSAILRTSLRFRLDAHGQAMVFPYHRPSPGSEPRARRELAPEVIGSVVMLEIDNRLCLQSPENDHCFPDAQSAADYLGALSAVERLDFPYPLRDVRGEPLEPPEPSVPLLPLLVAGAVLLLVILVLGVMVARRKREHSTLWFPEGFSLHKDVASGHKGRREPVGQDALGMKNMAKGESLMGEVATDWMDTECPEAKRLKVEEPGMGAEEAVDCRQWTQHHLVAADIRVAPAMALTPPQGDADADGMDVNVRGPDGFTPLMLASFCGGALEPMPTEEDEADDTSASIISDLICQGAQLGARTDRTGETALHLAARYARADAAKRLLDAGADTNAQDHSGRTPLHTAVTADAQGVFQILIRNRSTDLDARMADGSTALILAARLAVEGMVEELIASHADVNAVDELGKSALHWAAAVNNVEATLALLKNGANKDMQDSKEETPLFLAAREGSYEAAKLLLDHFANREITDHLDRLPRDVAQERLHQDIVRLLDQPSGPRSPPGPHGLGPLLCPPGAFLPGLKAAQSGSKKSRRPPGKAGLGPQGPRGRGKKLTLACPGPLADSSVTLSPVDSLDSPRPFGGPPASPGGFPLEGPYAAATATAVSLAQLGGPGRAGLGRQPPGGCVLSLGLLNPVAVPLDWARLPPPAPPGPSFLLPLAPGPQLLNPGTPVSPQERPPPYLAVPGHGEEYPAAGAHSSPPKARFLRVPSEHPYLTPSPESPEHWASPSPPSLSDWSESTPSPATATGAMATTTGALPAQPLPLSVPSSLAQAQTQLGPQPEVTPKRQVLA
Chain of U2OS/hNotch3 (Q9UM47 40-2321): as above

In turn, `CC(=O)O[C@H]1C(=O)[C@@]2(C)[C@H]([C@H](OC(=O)c3ccccc3)[C@]3(O)C[C@H](OC(=O)[C@H](O)[C@@H](NC(=O)c4ccccc4)c4ccccc4)C(C)=C1C3(C)C)[C@]1(OC(C)=O)CO[C@@H]1C[C@@H]2O` [paclitaxel, reference compound] gave an MTD in series [1] of 60 mg/kg. Further, the tumor volume amounted to 169 mm3 in series [2] (DAY 0); 139 mm3 in series [2] (DAY 6); 85 mm3 in series [2] (DAY 11); 84 mm3 in series [2] (DAY 14); 61 mm3 in series [2] (DAY 18); 50 mm3 in series [2] (DAY 21). Moreover, the tumor volume in series [2] (DAY 25) worked out at 41 mm3; in series [2] (DAY 28), 44 mm3; in series [2] (DAY 31) it was 43 mm3; in series [2] (DAY 34), 50 mm3; in series [2] (DAY 38), 55 mm3; in series [2] (DAY 41), 38 mm3. Also, the tumor volume in series [2] (DAY 45) is on record as 39 mm3; in series [2] (DAY 49), 40 mm3; in series [2] (DAY 53), 40 mm3; in series [2] (DAY 56), 39 mm3; in series [2] (DAY 59), 37 mm3; in series [2] (DAY 63), 42 mm3. Besides, the tumor volume in series [2] (DAY 67) is 33 mm3; in series [2] (DAY 70), 28 mm3; in series [2] (DAY 74), 32 mm3; in series [2] (DAY 77), 31 mm3; in series [2] (DAY 80) it was 31 mm3; in series [2] (DAY 83), 38 mm3. Also, the tumor volume was found to be 28 mm3 in series [2] (DAY 87); 32 mm3 in series [2] (DAY 90); 30 mm3 in series [2] (DAY 94); 31 mm3 in series [2] (DAY 97); 26 mm3 in series [2] (DAY 102); 31 mm3 in series [2] (DAY 105). Moreover, the tumor volume in series [2] (DAY 108) worked out at 28 mm3; in series [2] (DAY 111) it was 26 mm3; in series [2] (DAY 115), 31 mm3; in series [2] (DAY 118), 26 mm3; in series [2] (DAY 122) it was 31 mm3.

B1: ch28-vc0101: ch28 conjugated to vc0101 linker-payload (conjugate)
VH: EVQLVESGGGLVQPGRSLTLSCVASGFTFRDYGMTWIRQAPGKGLTWVAYISSGSNYIYYAEAVKGRFTISRDNAKNTLYLQMTSLRSEDTALYFCTRRGPFVLDAWGQGASVTVSS
VL: DIQMTQSPSFLSASVGDRVTINCKASQSINRYLHWFQQKLGEAPKLLIYNANGLQTGIPSRFSGSGSGTDFTLTISSLQSEDVATYFCLQHNTWPDTFGAGTKLELK
In the case of B1, in series [3], the “IC50 (ng Ab/mL) ± S.E.M., MDA-MB-468” value was found to be 5443 ± 2630.9 ng Ab/mL. In series [4], the “IC50 (ng Ab/mL) ± S.E.M., HCC2429” value turned out to be 3230 ± 1116.5 ng Ab/mL. Also, the “IC50 (ng Ab/mL) ± S.E.M., OVCAR3” value in series [5] came out at 635 ng Ab/mL. In series [6], the “IC50 (ng Ab/mL) ± S.E.M., MDA-MB-468/hNotch3” value was 4 ± 0.5 ng Ab/mL. Moreover, in series [7], the “IC50 (ng Ab/mL) ± S.E.M., U2OS/hNotch3” value turned out to be 95 ± 18.2 ng Ab/mL.
